# Results from patent US20210292807A1, “METHOD FOR TESTING ANTIMICROBIAL SUSCEPTIBILITY” (priority 2017, published 2021).
# Test system: Klebsiella isolates
# Experiment: Acoustic flow cytometry-assisted susceptibility test (FAST), MICFAST and S/NS, Klebsiella isolates
# Type: cell-based, Klebsiella pneumoniae, Klebsiella oxytoca
# Method: A 1 mL aliquot of bacterial suspension was centrifuged, washed and resuspended in 1 mL filtered Hank's Buffered Salt Solution (HBSS; comprising about 0.137 M NaCl, about 5.4 mM KCl, about 0.25 mM Na2HPO4, about 0.1 g Glucose, about 0.44 mM KH2PO4, 1.3 mM CaCl2), 1.0 mM MgSO4, about 1.3 mM CaCl2), 1.0 mM MgSO4, and about 4.2 mM NaHCO3) and diluted in series (e.g., in a 1:10 serial dilution) to a final 1:1000 dilution.
# One μL (microliter) of SYTO 9 stain (e.g., ThermoFisher Scientific) working stock solution was added to the final dilution at a final concentration of 5 μM and incubated for 5 minutes before counting bacterial events by acoustic flow cytometer (AFC) (Attune, ThermoFisher, Eugene, Oreg., USA), which was used to prepare a standardised inoculum density for susceptibility testing.
# An aliquot of bacterial suspension was added to 50 mL centrifuge tubes (Corning, N.Y.) containing 9 mL of pre-warmed (37° C.) filtered MHB to produce a final density of 5×10^5-1×10^6 bacteria per mL. This suspension was incubated at 37° C. with shaking at 100 RPM for 30 minutes to obtain an actively dividing culture. An aliquot of antibiotic working solution from the previously described dilution series (appropriate to the concentration tested) was then added to each tube before a further 30-minute incubation with shaking, during which time a microbroth dilution (MBD) plate was prepared for overnight incubation at 37° C. as previously described in Clinical and Laboratory Standards Institute (2015) Performance Standards for Antimicrobial Susceptibility Testing: Informational Supplement. CLSI document M100-S25. Clinical and Laboratory Standards Institute, 950, West Valley Road, Suite 2500, Wayne, Pa., 19087, USA.
# One millilitre of bacterial suspension from each antibiotic concentration was harvested by centrifugation at 7800×g for 5 minutes, washed and diluted 1:10 in filtered HBSS in a light-impermeable microcentrifuge tube, then stained with SYTO 9 stain at a final concentration of 5 μM, and incubated for 5 min before AFC sampling. Hoechst 33342 dye (NucBlue, Thermo Fisher Scientific, Eugene, Oreg., USA) and a SYTO 9/propidium iodide (PI) combination (Thermo Fisher Scientific) were used in a series of replicate experiments.
# The acoustic flow cytometer employed was Attune acoustic flow cytometer (Thermo Fisher Scientific), having installed therein a 488 nm blue laser with a 530/30 nm filter on the photomultiplier tube for measuring fluorescence of cells assayed. Alternatively, the Attune NxT acoustic flow cytometer (Thermo Fisher Scientific) can be employed. AFC was calibrated at the beginning of each acquisition session using fluorescently labelled size calibration beads, in accordance with the manufacturer's instructions (ThermoFisher Scientific). The AFC settings were as follows: Forward Scatter (FSC) voltage 3100, FSC threshold 4×1000 AND, blue laser 1 (BL1—530/30 nm) voltage 1900, BL1 threshold 1×1000 AND, high sensitivity, flow rate 25 μL/minute, and an acquisition volume of 125 μL. Acquisition was halted after either collection of 20,000 events across all gates, or after 3 minutes, with each sample acquired in technical triplicate.
# Collected data was exported in the FCS 3.0 file format and analysed in Flow v10.0 (FlowJo LLC, Ashland, Oreg., USA) by a single user, blinded to the MIC results by BMD (MICBMD).
# Subsequent to quantitative MICFAST determination, the acoustic flow cytometer data were re-analysed in silico to produce a limited sub-set for qualitative susceptibility determination. The six antibiotic dilutions (0 mg/L, 0.25 mg/L, 1 mg/L, 2 mg/L, 4 mg/L and 16 mg/L) most relevant to qualitative susceptibility assessment were used. In silico analysis was restricted to the first technical triplicate of each recorded sample. Gating strategies remained consistent, with the addition of a gate restricting analysis to only those events recorded in the first 60 seconds of acquisition.
# [1] = isolate 3000770, England, NDM-1
# [2] = isolate 3040820, England, pAmpC
# [3] = isolate ATCC BAA 1705, USA, KPC
# [4] = isolate K16, Australia, IMP - 4
# [5] = isolate K23, Australia, IMP - 4
# [6] = isolate KS1, Sri Lanka, OXA-181
# [7] = isolate KS2, Sri Lanka, OXA-181
# [8] = isolate KS17, Sri Lanka, OXA-181
# [9] = isolate KS23, Sri Lanka, OXA-181
smiles,measurement,setting,value
C[C@@H](O)[C@H]1C(=O)N2C(C(=O)O)=C(S[C@@H]3CN[C@H](C(=O)N(C)C)C3)[C@H](C)[C@H]12 [meropenem],FAST S/NS,"isolate 2440606, England",S (S = MIC ≤2 mg/L)
same,MICFAST,"isolate 2440606, England",≤0.25 mg/L
same,FAST S/NS,"isolate 2880622, England",S (S = MIC ≤2 mg/L)
same,MICFAST,"isolate 2880622, England",≤0.25 mg/L
same,FAST S/NS,"isolate 2880654, England, KPC",NS (NS = MIC >2 mg/L)
same,MICFAST,"isolate 2880654, England, KPC",32 mg/L
same,FAST S/NS,"isolate 2890369, England",S (S = MIC ≤2 mg/L)
same,MICFAST,"isolate 2890369, England",0.5 mg/L
same,FAST S/NS,"isolate 2980639, England",S (S = MIC ≤2 mg/L)
same,MICFAST,"isolate 2980639, England",0.5 mg/L
same,FAST S/NS,[1],NS (NS = MIC >2 mg/L)
same,MICFAST,[1],8 mg/L
same,FAST S/NS,[2],S (S = MIC ≤2 mg/L)
same,MICFAST,[2],≤0.25 mg/L
same,FAST S/NS,"isolate 3080800, England, KPC",NS (NS = MIC >2 mg/L)
same,MICFAST,"isolate 3080800, England, KPC",32 mg/L
same,FAST S/NS,"isolate A1, Norway",S (S = MIC ≤2 mg/L)
same,MICFAST,"isolate A1, Norway",≤0.25 mg/L
same,FAST S/NS,"isolate A2, Norway",S (S = MIC ≤2 mg/L)
same,MICFAST,"isolate A2, Norway",≤0.25 mg/L
same,FAST S/NS,"isolate A3, Norway",S (S = MIC ≤2 mg/L)
same,MICFAST,"isolate A3, Norway",≤0.25 mg/L
same,FAST S/NS,"isolate A4, Norway",S (S = MIC ≤2 mg/L)
same,MICFAST,"isolate A4, Norway",≤0.25 mg/L
same,FAST S/NS,"isolate A7, Norway",S (S = MIC ≤2 mg/L)
same,MICFAST,"isolate A7, Norway",≤0.25 mg/L
same,FAST S/NS,"isolate A13, Norway",S (S = MIC ≤2 mg/L)
same,MICFAST,"isolate A13, Norway",≤0.25 mg/L
same,FAST S/NS,"isolate A15, Norway",S (S = MIC ≤2 mg/L)
same,MICFAST,"isolate A15, Norway",≤0.25 mg/L
same,FAST S/NS,"isolate A16, Norway",S (S = MIC ≤2 mg/L)
same,MICFAST,"isolate A16, Norway",≤0.25 mg/L
same,FAST S/NS,"isolate A20, Norway, NDM-1",NS (NS = MIC >2 mg/L)
same,MICFAST,"isolate A20, Norway, NDM-1",16 mg/L
same,FAST S/NS,"isolate ATCC 700603, USA",S (S = MIC ≤2 mg/L)
same,MICFAST,"isolate ATCC 700603, USA",≤0.25 mg/L
same,FAST S/NS,[3],NS (NS = MIC >2 mg/L)
same,MICFAST,[3],8 mg/L
same,FAST S/NS,"isolate ATCC BAA 1706, USA",S (S = MIC ≤2 mg/L)
same,MICFAST,"isolate ATCC BAA 1706, USA",≤0.25 mg/L
same,FAST S/NS,"isolate K1, Australia, OXA-181",NS (NS = MIC >2 mg/L)
same,MICFAST,"isolate K1, Australia, OXA-181",32 mg/L
same,FAST S/NS,"isolate K2, Australia, OXA-181",NS (NS = MIC >2 mg/L)
same,MICFAST,"isolate K2, Australia, OXA-181",32 mg/L
same,FAST S/NS,"isolate K8, Australia, NDM-1",NS (NS = MIC >2 mg/L)
same,MICFAST,"isolate K8, Australia, NDM-1",>256 mg/L
same,FAST S/NS,"isolate K14, Australia, KPC",NS (NS = MIC >2 mg/L)
same,FAST S/NS,[4],S (S = MIC ≤2 mg/L)
same,MICFAST,[4],2 mg/L
same,FAST S/NS,[5],S (S = MIC ≤2 mg/L)
same,MICFAST,[5],0.5 mg/L
same,FAST S/NS,[6],S (S = MIC ≤2 mg/L)
same,MICFAST,[6],2 mg/L
same,FAST S/NS,[7],NS (NS = MIC >2 mg/L)
same,MICFAST,[7],16 mg/L
same,FAST S/NS,[8],NS (NS = MIC >2 mg/L)
same,MICFAST,[8],64 mg/L
same,FAST S/NS,[9],NS (NS = MIC >2 mg/L)
same,MICFAST,[9],64 mg/L
same,FAST S/NS,"isolate N17, Sweden, NDM-1",NS (NS = MIC >2 mg/L)
same,MICFAST,"isolate N17, Sweden, NDM-1",32 mg/L
